Test results from paper PMC9669269 (Journal of Computational Chemistry, 2022).

Assays:
Test in all cases: HTRF displacement of biotinylated H4Ac4 peptide
Type in all cases: binding
CaBD1 (CaBdf1 BD1) = biological target: T1, CaBD1 (CaBdf1 BD1) (Candida albicans, UniProt Q5A4W8)
T1 sequence (Q5A4W8 193-327): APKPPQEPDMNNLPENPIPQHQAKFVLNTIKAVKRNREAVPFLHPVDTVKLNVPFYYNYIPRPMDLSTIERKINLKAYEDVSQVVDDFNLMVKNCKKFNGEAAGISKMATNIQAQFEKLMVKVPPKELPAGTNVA

hBrd4 BD2 = hBrd4 BD2 (Homo sapiens, UniProt O60885)
hBrd4 BD1 = hBrd4 BD1 (Homo sapiens, UniProt O60885)
CaBD2 (CaBdf1 BD2) = biological target: T2, CaBD2 (CaBdf1 BD2) (Candida albicans, UniProt Q5A4W8)
T2 sequence (Q5A4W8 386-491): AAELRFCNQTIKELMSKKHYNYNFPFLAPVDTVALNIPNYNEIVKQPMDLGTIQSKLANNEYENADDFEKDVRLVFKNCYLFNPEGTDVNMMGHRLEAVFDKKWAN

| IC50 (CaBD1 (CaBdf1 BD1)) [µM] | IC50 (hBrd4 BD2) [µM] | IC50 (hBrd4 BD1) [µM] | IC50 (CaBD2 (CaBdf1 BD2)) [µM] | Structure (SMILES) |
| --- | --- | --- | --- | --- |
| > 20 | 8.7 ± 1.8 | 14.8 ± 6.9 | 6.3 ± 2.78 | Cc1ccc(Nc2c(-c3ccc(O)c(F)c3)nc3c(C)cccn23)cc1 [1a, 2‐Fluoro‐4‐(8‐methyl‐3‐(p‐tolylamino)imidazo[1,2‐a]pyridin‐2‐yl)phenol] |
| > 20 | > 20 | > 20 | 5.22 ± 2.12 | Cc1ccc(Nc2c(-c3ccc(O)cc3F)nc3c(C)cccn23)cc1 [1b, 3‐Fluoro‐4‐(8‐methyl‐3‐(p‐tolylamino)imidazo[1,2‐a]pyridin‐2‐yl)phenol] |
| > 20 | > 20 | > 20 | 0.78 ± 0.15 | Cc1ccc(Nc2c(-c3ccc(O)cc3)nc3c(C)cccn23)cc1O [1c, 5‐((2‐(4‐Hydroxyphenyl)‐8‐methylimidazo[1,2‐a]pyridin‐3‐yl)amino)‐2‐methylphenol] |
| > 20 | > 20 | > 20 | 9.74 ± 0.19 | Cc1ccc(Nc2c(-c3ccc(O)cc3)nc3c(C)cccn23)c(O)c1 [1d, 2‐((2‐(4‐Hydroxyphenyl)‐8‐methylimidazo[1,2‐a]pyridin‐3‐yl)amino)‐5‐methylphenol] |
| > 20 | 16 ± 1.2 | > 20 | 1.5 ± 0.42 | Cc1ccc(Nc2c(-c3ccc(O)cc3)nc3c(Cl)cccn23)cc1 [1e, 4‐(8‐Chloro‐3‐(p‐tolylamino)imidazo[1,2‐a]pyridin‐2‐yl)phenol] |
| > 20 | > 20 | > 20 | 0.75 ± 0.25 | Cc1ccc(Nc2c(-c3ccc(O)cc3)nc3c(Br)cccn23)cc1 [1f, 4‐(8‐Bromo‐3‐(p‐tolylamino)imidazo[1,2‐a]pyridin‐2‐yl)phenol] |
| > 20 | > 20 | > 20 | 1.01 ± 0.19 | Cc1ccc(Nc2c(-c3ccc(O)cc3)nc3c(I)cccn23)cc1 [1g, 4‐(8‐Iodo‐3‐(p‐tolylamino)imidazo[1,2‐a]pyridin‐2‐yl)phenol] |
| > 20 | 2.24 ± 0.65 | > 20 | 0.37 ± 0.09 | Cc1cccn2c(Nc3ccc(N)cc3)c(-c3ccc(O)cc3)nc12 [1h, 4‐(3‐([4‐Aminophenyl]amino)‐8‐methylimidazo[1,2‐a]pyridin‐2‐yl)phenol] |
| > 20 | 12.8 ± 3.2 | > 20 | 4.35 ± 0.63 | Cc1cccn2c(Nc3ccc(Br)cc3)c(-c3ccc(O)cc3)nc12 [1i, 4‐(3‐([4‐Bromophenyl]amino)‐8‐methylimidazo[1,2‐a]pyridin‐2‐yl)phenol] |
| > 20 | > 20 | > 20 | 4.39 ± 1.04 | Cc1cccn2c(Nc3ccc([N+](=O)[O-])cc3)c(-c3ccc(O)cc3)nc12 [1j, 4‐(8‐Methyl‐3‐([4‐nitrophenyl]amino)imidazo[1,2‐a]pyridin‐2‐yl)phenol] |
| > 20 | > 20 | > 20 | 3.9 ± 0.35 | Cc1ccc(Nc2c(-c3ccc(O)cc3)nc3c(C)cccn23)cc1 [compound 1, imidazopyridine (1)] |
